Assay results from the supplement of paper PMC11451515.

Experiments:
Conditions in all cases: 48 h
[1] = tested on: P12-Ichikawa; assay: AUC of viability dose-response curve (% viability x log10 dose units); higher = less sensitive
Method in brief: (§1)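 Leukemia cells adapted to each medium were seeded at 500 or 1000 cells/well in 1536-well plates and dosed with library compounds in DMSO at 11 threefold doses from 47 μM to 0.79 nM for 48 h at 37°C. CellTiter-Glo One luminescence was normalised per plate to DMSO and cell-free wells, then fitted with a four-parameter log-logistic model over log10 doses. Area under the curve was taken from this fit by the trapezoidal rule, with curves above full viability scaled and curves failing quality control removed.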

[2] = tested on: SEM cells; assay: as above
Method in brief: as §1

[3] = tested on: NOMO1; assay: as above
Method in brief: as §1

[4] = tested on: P12-Ichikawa; assay: cell viability relative to DMSO control; higher = less cytotoxic
Method in brief: (§2)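 Leukemia cells (NOMO1 or SEM, 500 cells/well; P12-Ichikawa, 1000 cells/well) were seeded in 5 μl in 1536-well plates after at least four passages of adaptation to each medium. They received library compounds in DMSO by pin dosing, 11 threefold points from 47 μM to 0.79 nM. Luminescence with CellTiter-Glo One was read after 48 h at 37°C. Viability is stated per plate relative to DMSO wells, with cell-free wells as background.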

[5] = tested on: SEM cells; assay: as above
Method in brief: as §2

[6] = tested on: NOMO1; assay: as above
Method in brief: as §2

CN1CCN(C(=O)O[C@H]2c3nccnc3C(=O)N2c2ccc(Cl)cn2)CC1
AUC of viability dose-response curve
Conditions | [1] | [2] | [3]
HPLM + 10% dialyzed FBS | 468 | 453 | 451
RPMI 5 mM glucose + 10% FBS | 461 | 450 | 467
RPMI 5 mM glucose + 10% dialyzed FBS | 470 | 445 | 464

cell viability [%]
Conditions | [4] | [5] | [6]
HPLM + 10% dialyzed FBS, 0.000781 µM | 112 | 103 | 115
HPLM + 10% dialyzed FBS, 0.00234 µM | 108 | 105 | 102
HPLM + 10% dialyzed FBS, 0.00702 µM | 105 | 99.8 | 119
HPLM + 10% dialyzed FBS, 0.0211 µM | 111 | 104 | 114
HPLM + 10% dialyzed FBS, 0.0632 µM | 104 | 101 | 114
HPLM + 10% dialyzed FBS, 0.19 µM | 110 | 89 | 112
HPLM + 10% dialyzed FBS, 0.569 µM | 103 | 108 | 114
HPLM + 10% dialyzed FBS, 1.71 µM | 108 | 97.9 | 101
HPLM + 10% dialyzed FBS, 5.12 µM | 101 | 105 | 91.1
HPLM + 10% dialyzed FBS, 15.4 µM | 98.2 | 39.8 | 98.4
HPLM + 10% dialyzed FBS, 46.1 µM | 99.9 | 95.8 | 88.1
RPMI 5 mM glucose + 10% FBS, 0.000781 µM | 96.8 | 101 | 94.8
RPMI 5 mM glucose + 10% FBS, 0.00234 µM | 102 | 106 | 99.2
RPMI 5 mM glucose + 10% FBS, 0.00702 µM | 106 | 109 | 92.4
RPMI 5 mM glucose + 10% FBS, 0.0211 µM | 106 | 111 | 106
RPMI 5 mM glucose + 10% FBS, 0.0632 µM | 101 | 109 | 103
RPMI 5 mM glucose + 10% FBS, 0.19 µM | 106 | 96.6 | 99.4
RPMI 5 mM glucose + 10% FBS, 0.569 µM | 103 | 99.9 | 99.4
RPMI 5 mM glucose + 10% FBS, 1.71 µM | 95.5 | 116 | 97.9
RPMI 5 mM glucose + 10% FBS, 5.12 µM | 93 | 108 | 99.3
RPMI 5 mM glucose + 10% FBS, 15.4 µM | 95.1 | 43.4 | 93.8
RPMI 5 mM glucose + 10% FBS, 46.1 µM | 88 | 89 | 84.6
RPMI 5 mM glucose + 10% dialyzed FBS, 0.000781 µM | 98.6 | 110 | 97.6
RPMI 5 mM glucose + 10% dialyzed FBS, 0.00234 µM | 102 | 105 | 107
RPMI 5 mM glucose + 10% dialyzed FBS, 0.00702 µM | 98.9 | 113 | 103
RPMI 5 mM glucose + 10% dialyzed FBS, 0.0211 µM | 105 | 111 | 94.2
RPMI 5 mM glucose + 10% dialyzed FBS, 0.0632 µM | 92.9 | 102 | 99.1
RPMI 5 mM glucose + 10% dialyzed FBS, 0.19 µM | 102 | 105 | 97
RPMI 5 mM glucose + 10% dialyzed FBS, 0.569 µM | 101 | 110 | 105
RPMI 5 mM glucose + 10% dialyzed FBS, 1.71 µM | 99.1 | 110 | 97.2
RPMI 5 mM glucose + 10% dialyzed FBS, 5.12 µM | 102 | 103 | 97
RPMI 5 mM glucose + 10% dialyzed FBS, 15.4 µM | 93.6 | 30.6 | 88.5
RPMI 5 mM glucose + 10% dialyzed FBS, 46.1 µM | 85.1 | 95.6 | 78.5

COC(=O)\C1=C\CCN(C)C1
AUC of viability dose-response curve
Conditions | [1] | [2] | [3]
HPLM + 10% dialyzed FBS | 446 | 473 | 473
RPMI 5 mM glucose + 10% FBS | 470 | 473 | 448
RPMI 5 mM glucose + 10% dialyzed FBS | 468 | 477 | 466

cell viability [%]
Conditions | [4] | [5] | [6]
HPLM + 10% dialyzed FBS, 0.000781 µM | 111 | 113 | 125
HPLM + 10% dialyzed FBS, 0.00234 µM | 106 | 109 | 115
HPLM + 10% dialyzed FBS, 0.00702 µM | 105 | 106 | 111
HPLM + 10% dialyzed FBS, 0.0211 µM | 100 | 113 | 102
HPLM + 10% dialyzed FBS, 0.0632 µM | 103 | 102 | 101
HPLM + 10% dialyzed FBS, 0.19 µM | 108 | 117 | 124
HPLM + 10% dialyzed FBS, 0.569 µM | 96.9 | 103 | 135
HPLM + 10% dialyzed FBS, 1.71 µM | 102 | 105 | 115
HPLM + 10% dialyzed FBS, 5.12 µM | 93.7 | 109 | 113
HPLM + 10% dialyzed FBS, 15.4 µM | 102 | 114 | 112
HPLM + 10% dialyzed FBS, 46.1 µM | 105 | 106 | 109
RPMI 5 mM glucose + 10% FBS, 0.000781 µM | 102 | 107 | 84.7
RPMI 5 mM glucose + 10% FBS, 0.00234 µM | 115 | 103 | 94.8
RPMI 5 mM glucose + 10% FBS, 0.00702 µM | 113 | 106 | 96.5
RPMI 5 mM glucose + 10% FBS, 0.0211 µM | 104 | 109 | 91.3
RPMI 5 mM glucose + 10% FBS, 0.0632 µM | 102 | 104 | 85.3
RPMI 5 mM glucose + 10% FBS, 0.19 µM | 108 | 111 | 94
RPMI 5 mM glucose + 10% FBS, 0.569 µM | 111 | 111 | 110
RPMI 5 mM glucose + 10% FBS, 1.71 µM | 115 | 110 | 97.4
RPMI 5 mM glucose + 10% FBS, 5.12 µM | 107 | 98.8 | 93.6
RPMI 5 mM glucose + 10% FBS, 15.4 µM | 98.4 | 99.8 | 87
RPMI 5 mM glucose + 10% FBS, 46.1 µM | 101 | 110 | 99
RPMI 5 mM glucose + 10% dialyzed FBS, 0.000781 µM | 101 | 101 | 95.7
RPMI 5 mM glucose + 10% dialyzed FBS, 0.00234 µM | 101 | 111 | 96.3
RPMI 5 mM glucose + 10% dialyzed FBS, 0.00702 µM | 97 | 109 | 98.9
RPMI 5 mM glucose + 10% dialyzed FBS, 0.0211 µM | 96.1 | 115 | 95.7
RPMI 5 mM glucose + 10% dialyzed FBS, 0.0632 µM | 96.3 | 127 | 107
RPMI 5 mM glucose + 10% dialyzed FBS, 0.19 µM | 99.8 | 106 | 97.4
RPMI 5 mM glucose + 10% dialyzed FBS, 0.569 µM | 102 | 114 | 92.5
RPMI 5 mM glucose + 10% dialyzed FBS, 1.71 µM | 101 | 124 | 97.6
RPMI 5 mM glucose + 10% dialyzed FBS, 5.12 µM | 93 | 110 | 88.9
RPMI 5 mM glucose + 10% dialyzed FBS, 15.4 µM | 99 | 106 | 102
RPMI 5 mM glucose + 10% dialyzed FBS, 46.1 µM | 93.3 | 105 | 103

Cc1c(C)c2c(c(C)c1O)CCC(C)(COc1ccc(CC3SC(=O)NC3=O)cc1)O2 (centres undefined)
AUC of viability dose-response curve
Conditions | [1] | [2] | [3]
HPLM + 10% dialyzed FBS | 477 | 467 | 466
RPMI 5 mM glucose + 10% FBS | 477 | 462 | 466
RPMI 5 mM glucose + 10% dialyzed FBS | 462 | 471 | 454

cell viability [%]
Conditions | [4] | [5] | [6]
HPLM + 10% dialyzed FBS, 0.000781 µM | 112 | 119 | 122
HPLM + 10% dialyzed FBS, 0.00234 µM | 127 | 113 | 123
HPLM + 10% dialyzed FBS, 0.00702 µM | 121 | 127 | 114
HPLM + 10% dialyzed FBS, 0.0211 µM | 126 | 117 | 133
HPLM + 10% dialyzed FBS, 0.0632 µM | 126 | 124 | 125
HPLM + 10% dialyzed FBS, 0.19 µM | 127 | 117 | 126
HPLM + 10% dialyzed FBS, 0.569 µM | 131 | 128 | 142
HPLM + 10% dialyzed FBS, 1.71 µM | 136 | 132 | 138
HPLM + 10% dialyzed FBS, 5.12 µM | 129 | 141 | 132
HPLM + 10% dialyzed FBS, 15.4 µM | 118 | 112 | 116
HPLM + 10% dialyzed FBS, 46.1 µM | 109 | 93.1 | 125
RPMI 5 mM glucose + 10% dialyzed FBS, 0.000781 µM | – | 104 | –
RPMI 5 mM glucose + 10% dialyzed FBS, 0.00234 µM | – | 101 | –
RPMI 5 mM glucose + 10% dialyzed FBS, 0.00702 µM | – | 127 | –
RPMI 5 mM glucose + 10% dialyzed FBS, 0.0211 µM | – | 106 | –
RPMI 5 mM glucose + 10% dialyzed FBS, 0.0632 µM | – | 126 | –
RPMI 5 mM glucose + 10% dialyzed FBS, 0.19 µM | – | 121 | –
RPMI 5 mM glucose + 10% dialyzed FBS, 0.569 µM | – | 136 | –
RPMI 5 mM glucose + 10% dialyzed FBS, 1.71 µM | – | 134 | –
RPMI 5 mM glucose + 10% dialyzed FBS, 5.12 µM | – | 154 | –
RPMI 5 mM glucose + 10% dialyzed FBS, 15.4 µM | – | 95.4 | –
RPMI 5 mM glucose + 10% dialyzed FBS, 46.1 µM | – | 84.9 | –
